The text below walks through data of PMC3427410 (Nature chemical biology, 2012).

In the assay the target is T1, FUT7 (Homo sapiens, UniProt Q11130).
T1 sequence (Q11130 1-342): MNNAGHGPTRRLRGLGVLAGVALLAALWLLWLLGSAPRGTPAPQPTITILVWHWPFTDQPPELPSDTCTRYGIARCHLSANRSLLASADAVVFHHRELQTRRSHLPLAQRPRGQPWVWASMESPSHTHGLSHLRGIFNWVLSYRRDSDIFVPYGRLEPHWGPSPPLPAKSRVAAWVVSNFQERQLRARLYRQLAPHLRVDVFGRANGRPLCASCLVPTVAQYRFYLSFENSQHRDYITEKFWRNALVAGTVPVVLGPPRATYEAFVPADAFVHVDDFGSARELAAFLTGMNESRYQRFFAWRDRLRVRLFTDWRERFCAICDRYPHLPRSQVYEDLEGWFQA
Nature of the assay: in vitro fucosyltransferase assay, competition with GDP-Fuc transfer. The assay is classed as biochemical.

One may read the IC50 as the point on the concentration scale where inhibition reaches its midpoint. Low values mean inhibition by little substance, high ones a need for much substance. In turn, `Nc1nc2c(ncn2[C@@H]2O[C@H](COP(=O)(O)OP(=O)(O)O[C@H]3O[C@@H](CF)[C@@H](O)[C@@H](O)[C@@H]3O)[C@@H](O)[C@H]2O)c(=O)[nH]1` [compound 6, GDP-6F-Fuc] yielded an IC50 of roughly 2.5 µM.
